One test relates to NCI-H460. The test can be described thus: Antiproliferative activity against NCI-H460 cell line. It is filed as functional, Homo sapiens.
The test system of another test is HOP-62. Put plainly: Antiproliferative activity against HOP62 cell line. On the set-up: unit not given here. It is filed as functional, Homo sapiens.
For test [1], the target named is Vascular endothelial growth factor receptor 2 (Homo sapiens) (UniProt P35968). The test can be described thus: Inhibition of VEGFR2 at 10 uM in presence of 0.1 uM ATP.
Vascular endothelial growth factor receptor 2 (Homo sapiens), sequence (P35968 whole entry): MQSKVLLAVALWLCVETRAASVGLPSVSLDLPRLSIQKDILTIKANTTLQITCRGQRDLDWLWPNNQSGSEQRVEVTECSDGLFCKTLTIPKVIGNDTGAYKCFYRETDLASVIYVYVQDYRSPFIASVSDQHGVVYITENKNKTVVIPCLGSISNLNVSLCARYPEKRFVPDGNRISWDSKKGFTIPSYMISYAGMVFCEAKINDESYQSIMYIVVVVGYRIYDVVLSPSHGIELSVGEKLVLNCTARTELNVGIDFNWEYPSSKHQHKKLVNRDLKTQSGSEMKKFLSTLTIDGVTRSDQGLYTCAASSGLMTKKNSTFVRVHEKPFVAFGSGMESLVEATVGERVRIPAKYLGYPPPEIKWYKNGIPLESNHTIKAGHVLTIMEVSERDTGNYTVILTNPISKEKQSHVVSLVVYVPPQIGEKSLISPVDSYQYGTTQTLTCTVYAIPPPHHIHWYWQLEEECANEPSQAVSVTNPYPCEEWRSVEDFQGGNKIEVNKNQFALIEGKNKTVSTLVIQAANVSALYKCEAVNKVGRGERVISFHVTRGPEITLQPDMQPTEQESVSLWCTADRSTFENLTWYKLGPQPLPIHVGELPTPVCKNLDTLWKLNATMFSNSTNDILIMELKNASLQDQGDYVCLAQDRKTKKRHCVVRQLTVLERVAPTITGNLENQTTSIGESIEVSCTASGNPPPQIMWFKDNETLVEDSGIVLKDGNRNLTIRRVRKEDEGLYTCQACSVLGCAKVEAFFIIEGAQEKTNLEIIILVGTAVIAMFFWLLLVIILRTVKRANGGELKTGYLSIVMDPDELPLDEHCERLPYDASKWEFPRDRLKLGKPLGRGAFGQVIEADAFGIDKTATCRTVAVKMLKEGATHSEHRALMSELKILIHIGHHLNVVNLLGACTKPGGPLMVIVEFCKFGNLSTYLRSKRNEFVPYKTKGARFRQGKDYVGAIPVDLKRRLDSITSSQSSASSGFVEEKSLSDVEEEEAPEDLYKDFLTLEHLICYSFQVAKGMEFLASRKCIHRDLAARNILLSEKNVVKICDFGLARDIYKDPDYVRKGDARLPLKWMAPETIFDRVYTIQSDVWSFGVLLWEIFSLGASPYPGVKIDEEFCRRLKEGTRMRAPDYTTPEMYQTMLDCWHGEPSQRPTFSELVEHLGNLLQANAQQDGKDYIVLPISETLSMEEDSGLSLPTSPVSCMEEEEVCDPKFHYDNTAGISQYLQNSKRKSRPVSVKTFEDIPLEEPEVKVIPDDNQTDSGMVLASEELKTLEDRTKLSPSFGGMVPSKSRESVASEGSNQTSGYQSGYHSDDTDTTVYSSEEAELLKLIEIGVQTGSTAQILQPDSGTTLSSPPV
Test [2] addresses Receptor tyrosine-protein kinase erbB-2 (Homo sapiens) (UniProt P04626). The test can be described thus: Inhibition of ErbB2 at 10 uM in presence of 0.1 uM ATP.
Test [3] deals with Epidermal growth factor receptor (Homo sapiens) (UniProt P00533). Put plainly: Inhibition of EGFR at 10 uM in presence of 0.1 uM ATP.
The target in test [4] is Angiopoietin-1 receptor (Homo sapiens) (UniProt Q02763). The test can be described thus: Inhibition of TIE2 at 10 uM in presence of 0.1 uM ATP.
Test [5] has as its target T1, Ephrin type-B receptor 4 (Homo sapiens) (UniProt P54760).
T1 sequence (whole entry): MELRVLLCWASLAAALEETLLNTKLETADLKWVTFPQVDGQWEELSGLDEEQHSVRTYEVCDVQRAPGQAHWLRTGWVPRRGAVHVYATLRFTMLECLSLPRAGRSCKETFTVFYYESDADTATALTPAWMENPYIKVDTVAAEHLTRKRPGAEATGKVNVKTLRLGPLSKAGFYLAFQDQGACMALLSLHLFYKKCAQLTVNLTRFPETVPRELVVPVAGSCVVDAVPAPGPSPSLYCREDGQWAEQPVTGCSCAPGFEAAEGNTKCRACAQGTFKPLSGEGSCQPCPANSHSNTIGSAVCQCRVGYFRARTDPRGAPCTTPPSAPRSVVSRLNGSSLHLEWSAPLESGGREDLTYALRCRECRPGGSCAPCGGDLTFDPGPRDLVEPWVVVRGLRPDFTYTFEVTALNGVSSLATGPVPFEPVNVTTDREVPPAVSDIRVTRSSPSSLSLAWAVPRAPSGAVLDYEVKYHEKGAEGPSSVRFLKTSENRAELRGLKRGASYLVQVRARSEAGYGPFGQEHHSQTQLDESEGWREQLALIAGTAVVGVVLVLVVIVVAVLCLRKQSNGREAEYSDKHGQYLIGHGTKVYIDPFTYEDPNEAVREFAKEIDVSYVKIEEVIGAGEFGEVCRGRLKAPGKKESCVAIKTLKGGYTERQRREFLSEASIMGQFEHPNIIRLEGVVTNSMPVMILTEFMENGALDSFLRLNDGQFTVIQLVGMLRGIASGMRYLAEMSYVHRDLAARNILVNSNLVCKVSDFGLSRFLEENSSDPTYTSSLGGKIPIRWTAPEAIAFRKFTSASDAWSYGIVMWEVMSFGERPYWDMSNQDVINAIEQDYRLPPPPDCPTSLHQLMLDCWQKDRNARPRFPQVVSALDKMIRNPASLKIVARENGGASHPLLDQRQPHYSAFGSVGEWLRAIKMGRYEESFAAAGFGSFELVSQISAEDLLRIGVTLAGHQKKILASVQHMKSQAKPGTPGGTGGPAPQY
Put plainly: Inhibition of EPHB4 at 10 uM in presence of 0.1 uM ATP.

Test [6] addresses Insulin-like growth factor 1 receptor (Homo sapiens) (UniProt P08069). Put plainly: Inhibition of IGF1R at 10 uM in presence of 0.1 uM ATP.
Test [7] addresses Vascular endothelial growth factor receptor 1 (Homo sapiens) (UniProt P17948). The test can be described thus: Inhibition of VEGFR1 at 10 uM in presence of 0.1 uM ATP.

Insulin-like growth factor 1 receptor (Homo sapiens), sequence (P08069 31-736 limits assumed): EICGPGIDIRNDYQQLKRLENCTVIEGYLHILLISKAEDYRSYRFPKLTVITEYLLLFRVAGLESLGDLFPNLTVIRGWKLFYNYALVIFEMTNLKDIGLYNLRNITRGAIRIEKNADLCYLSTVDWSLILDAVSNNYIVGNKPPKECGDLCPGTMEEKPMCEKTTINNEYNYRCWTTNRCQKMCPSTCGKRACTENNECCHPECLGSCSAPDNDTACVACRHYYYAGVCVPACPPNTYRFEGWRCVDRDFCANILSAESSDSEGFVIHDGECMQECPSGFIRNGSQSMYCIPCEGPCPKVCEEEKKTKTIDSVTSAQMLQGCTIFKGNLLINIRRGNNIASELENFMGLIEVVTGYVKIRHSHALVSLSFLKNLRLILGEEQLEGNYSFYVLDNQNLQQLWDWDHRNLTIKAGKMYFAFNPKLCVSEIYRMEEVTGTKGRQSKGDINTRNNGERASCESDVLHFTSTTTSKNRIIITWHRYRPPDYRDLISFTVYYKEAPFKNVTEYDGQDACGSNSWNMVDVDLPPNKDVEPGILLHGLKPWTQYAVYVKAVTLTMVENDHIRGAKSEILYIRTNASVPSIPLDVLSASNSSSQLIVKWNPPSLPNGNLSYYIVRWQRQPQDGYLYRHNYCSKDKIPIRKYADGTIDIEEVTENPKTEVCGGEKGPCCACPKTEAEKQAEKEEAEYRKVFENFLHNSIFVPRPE
Insulin-like growth factor 1 receptor (Homo sapiens), sequence (P08069 741-1367 limits assumed): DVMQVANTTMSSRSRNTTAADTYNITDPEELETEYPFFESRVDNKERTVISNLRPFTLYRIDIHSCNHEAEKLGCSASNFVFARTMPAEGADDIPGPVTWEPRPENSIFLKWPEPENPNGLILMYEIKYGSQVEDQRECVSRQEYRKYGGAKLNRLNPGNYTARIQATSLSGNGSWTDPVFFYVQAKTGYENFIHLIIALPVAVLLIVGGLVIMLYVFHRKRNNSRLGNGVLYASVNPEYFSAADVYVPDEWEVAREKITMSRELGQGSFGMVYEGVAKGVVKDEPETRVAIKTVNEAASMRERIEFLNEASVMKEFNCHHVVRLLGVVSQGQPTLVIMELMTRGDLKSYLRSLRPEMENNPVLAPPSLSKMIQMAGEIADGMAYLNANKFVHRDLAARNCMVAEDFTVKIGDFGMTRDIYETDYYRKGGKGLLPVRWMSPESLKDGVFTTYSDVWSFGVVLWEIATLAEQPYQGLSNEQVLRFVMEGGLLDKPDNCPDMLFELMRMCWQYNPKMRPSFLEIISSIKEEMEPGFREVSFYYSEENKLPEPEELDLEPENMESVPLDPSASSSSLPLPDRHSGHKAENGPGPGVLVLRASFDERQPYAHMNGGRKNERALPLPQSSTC
Vascular endothelial growth factor receptor 1 (Homo sapiens), sequence (P17948 whole entry): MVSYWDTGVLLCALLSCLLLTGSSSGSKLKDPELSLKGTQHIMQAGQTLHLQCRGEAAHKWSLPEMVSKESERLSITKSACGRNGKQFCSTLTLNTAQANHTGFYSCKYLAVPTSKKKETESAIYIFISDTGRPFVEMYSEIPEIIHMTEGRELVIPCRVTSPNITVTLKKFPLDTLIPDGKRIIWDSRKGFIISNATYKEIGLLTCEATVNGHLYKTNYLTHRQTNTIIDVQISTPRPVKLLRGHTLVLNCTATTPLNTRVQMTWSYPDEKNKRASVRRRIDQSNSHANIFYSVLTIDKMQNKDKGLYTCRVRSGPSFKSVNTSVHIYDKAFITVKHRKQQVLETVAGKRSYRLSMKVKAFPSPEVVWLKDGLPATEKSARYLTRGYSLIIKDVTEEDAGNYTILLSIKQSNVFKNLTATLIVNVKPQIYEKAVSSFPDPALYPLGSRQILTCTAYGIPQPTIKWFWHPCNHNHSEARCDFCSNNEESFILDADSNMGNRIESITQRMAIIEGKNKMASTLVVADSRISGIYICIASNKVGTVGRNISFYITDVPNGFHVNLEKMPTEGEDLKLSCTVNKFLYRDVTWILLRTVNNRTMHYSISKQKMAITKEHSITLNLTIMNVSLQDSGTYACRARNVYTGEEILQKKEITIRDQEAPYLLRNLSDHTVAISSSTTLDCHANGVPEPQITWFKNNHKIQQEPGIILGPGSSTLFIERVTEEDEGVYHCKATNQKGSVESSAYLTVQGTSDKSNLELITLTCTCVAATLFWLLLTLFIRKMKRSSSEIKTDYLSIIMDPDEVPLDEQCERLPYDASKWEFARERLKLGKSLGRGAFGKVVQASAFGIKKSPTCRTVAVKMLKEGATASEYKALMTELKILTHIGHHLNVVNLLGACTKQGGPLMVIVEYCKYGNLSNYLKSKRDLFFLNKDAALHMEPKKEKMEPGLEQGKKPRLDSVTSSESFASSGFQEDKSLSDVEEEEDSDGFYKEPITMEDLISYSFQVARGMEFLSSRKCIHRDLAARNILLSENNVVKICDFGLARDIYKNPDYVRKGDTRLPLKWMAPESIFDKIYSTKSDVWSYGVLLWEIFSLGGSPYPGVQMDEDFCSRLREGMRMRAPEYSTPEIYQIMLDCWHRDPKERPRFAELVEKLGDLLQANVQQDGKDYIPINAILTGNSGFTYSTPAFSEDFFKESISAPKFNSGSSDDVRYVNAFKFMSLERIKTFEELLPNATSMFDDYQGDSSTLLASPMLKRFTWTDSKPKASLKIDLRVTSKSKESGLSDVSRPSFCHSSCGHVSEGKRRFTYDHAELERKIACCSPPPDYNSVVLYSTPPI

On to `O=C1c2ccccc2NC(=O)[C@H]2[C@H]1[C@@H](c1ccc(Cl)cc1)C[C@]2(O)c1ccccc1`, for which the results for the pGI50 in the test with NCI-H460 and in the test on HOP-62 were 5 M and above 4, respectively.

On to `COc1ccc([C@@H]2C[C@H]3C(=O)c4ccccc4NC(=O)[C@@H]3[C@@]2(O)c2ccccc2)cc1`, for which the values for the pGI50 with NCI-H460 and in the test on HOP-62 were 4.9 M and 5.6, respectively.

For the compound `Cc1ccc([C@@]2(O)[C@H](c3ccc(Cl)cc3)C[C@H]3C(=O)c4ccccc4NC(=O)[C@@H]32)cc1`, the results for the pGI50 in the test with NCI-H460 and with HOP-62 were 5.7 M and 5.3, respectively.

For the compound `Cc1ccc([C@@H]2C[C@H]3C(=O)c4ccccc4NC(=O)[C@@H]3[C@@]2(O)c2ccc(C)cc2)cc1`, the pGI50 in the test on NCI-H460 came to 5.4 M; in the test with HOP-62, 5.2.

For the compound `Cc1ccc([C@@H]2C[C@H]3C(=O)c4ccccc4NC(=O)[C@@H]3[C@@]2(O)c2ccccc2)cc1`, the pGI50 in the test with NCI-H460 is on record as 5.1 M; with HOP-62, 5.6.

As to `O=C1c2ccccc2NC(=O)[C@H]2[C@H]1[C@@H](c1ccccc1)C[C@]2(O)c1cccc(Cl)c1`, the pGI50 is 5.7 M in the test on NCI-H460 and above 4 in the test on HOP-62.

For the compound `Cc1ccc([C@@]2(O)[C@H](c3ccccc3)C[C@H]3C(=O)c4ccccc4NC(=O)[C@@H]32)cc1`, the pGI50 in the test with NCI-H460 turned out to be 4.7 M; in the test on HOP-62, 5.4.

`O=C1c2ccccc2NC(=O)[C@H]2[C@H]1C[C@@H](c1cccc(Cl)c1)[C@]2(O)c1ccccc1`: the pGI50 in the test on NCI-H460 is on record as 4.6 M; with HOP-62 it was 5.1.

On to `O=C1c2ccccc2NC(=O)[C@H]2[C@H]1[C@@H](c1ccccc1)C[C@]2(O)c1ccc2ccccc2c1`, for which the pGI50 is 6.7 M in the test with NCI-H460 and above 4 in the test on HOP-62.

On to `O=C1c2ccccc2NC(=O)[C@H]2[C@H]1C[C@@H](c1ccccc1)[C@]2(O)c1ccccc1`, for which the pGI50 in the test on NCI-H460 turned out to be 5.4 M; in the test with HOP-62, 5.4.

One may read the inhibition as the drop in the measured response relative to a control, in per cent. With `O=C1c2ccccc2NC(=O)[C@H]2[C@H]1[C@@H](c1cccc(Cl)c1)C[C@]2(O)c1ccccc1`, the pGI50 was 5.2 M with NCI-H460 and above 4 in the test on HOP-62. Moreover, the inhibition in test [1], in test [2], in test [3], in [4], in [5] and in test [6] was above 50% each time. For the same compound, in [7], the inhibition is above 50%.

On to `COc1ccc([C@H]2C[C@](O)(c3cccc(Cl)c3)[C@H]3C(=O)Nc4ccccc4C(=O)[C@H]23)cc1`, for which the pGI50 with NCI-H460 is recorded as 5 M; in the test on HOP-62, above 4.

`O=C1c2ccccc2NC(=O)[C@H]2[C@H]1[C@@H](c1ccccc1)C[C@]2(O)c1ccc2c(c1)OCO2`: the pGI50 was determined as 5.6 M in the test on NCI-H460 and 4.1 in the test on HOP-62.

In the case of `COc1ccc([C@H]2C[C@](O)(c3ccccc3)[C@H]3C(=O)Nc4ccccc4C(=O)[C@H]23)cc1`, the pGI50 was 5.1 M in the test on NCI-H460 and above 4 in the test on HOP-62.

Take `O=C1c2ccccc2NC(=O)[C@H]2[C@H]1C[C@@H](c1ccc(Cl)cc1)[C@]2(O)c1ccccc1`: the pGI50 with NCI-H460 is on record as 5.4 M; in the test with HOP-62, 5.6.

For the origin of these results see ChEMBL document CHEMBL1146950, “Matrix compare analysis discriminates subtle structural differences in a family of novel antiproliferative agents, diaryl-3-hydroxy-2,3,3a,10a-tetrahydrobenzo[b]cycylopenta[e]azepine-4,10(1H,5H)-diones” (2006).
